Test results: patent US9693556B2, “Herbicidal pyridazinone derivatives” (SYNGENTA LIMITED, priority 2011, dated 2017)

Assays:
Format in all cases: in vivo
[1] = tested on: Echinochloa crus-galli (ECHCG); experiment: Pre-emergence herbicidal glasshouse test on Echinochloa crus-galli; conditions: pre-emergence; 1000 g/h; evaluated after 13 days
Summary of the method: (§1)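 Scored on a five-point scale (1 = 0-19% to 5 = 80-100% damage) 13 days after treatment. Application rate 1000 g/h in acetone/water (50:50) containing 0.5% Tween 20, sprayed one day post-sowing for pre-emergence or eight days for post-emergence; glasshouse at 24/16° C, 14 h light, 65% humidity.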

[2] = tested on: Amaranthus retoflexus (AMARE); experiment: Post-emergence herbicidal glasshouse test on Amaranthus retoflexus; conditions: post-emergence; 1000 g/h; evaluated after 13 days
Summary of the method: as §1

Solanum nigrum (SOLNI) [3] = experiment: Pre-emergence herbicidal glasshouse test on Solanum nigrum; conditions: pre-emergence; 1000 g/h; evaluated after 13 days
Summary of the method: as §1

[4] = tested on: Amaranthus retoflexus (AMARE); experiment: Pre-emergence herbicidal glasshouse test on Amaranthus retoflexus; conditions: pre-emergence; 1000 g/h; evaluated after 13 days
Summary of the method: as §1

Solanum nigrum (SOLNI) [5] = experiment: Post-emergence herbicidal glasshouse test on Solanum nigrum; conditions: post-emergence; 1000 g/h; evaluated after 13 days
Summary of the method: as §1

[6] = tested on: Ipomoea hederacea (IPOHE); experiment: Pre-emergence herbicidal glasshouse test on Ipomoea hederacea; conditions: pre-emergence; 1000 g/h; evaluated after 13 days
Summary of the method: as §1

[7] = tested on: Alopecurus myosuroides (ALOMY); experiment: Post-emergence herbicidal glasshouse test on Alopecurus myosuroides; conditions: post-emergence; 1000 g/h; evaluated after 13 days
Summary of the method: as §1

Setaria faberi (SETFA) [8] = experiment: Pre-emergence herbicidal glasshouse test on Setaria faberi; conditions: pre-emergence; 1000 g/h; evaluated after 13 days
Summary of the method: as §1

Setaria faberi (SETFA) [9] = experiment: Post-emergence herbicidal glasshouse test on Setaria faberi; conditions: post-emergence; 1000 g/h; evaluated after 13 days
Summary of the method: as §1

[10] = tested on: Echinochloa crus-galli (ECHCG); experiment: Post-emergence herbicidal glasshouse test on Echinochloa crus-galli; conditions: post-emergence; 1000 g/h; evaluated after 13 days
Summary of the method: as §1

[11] = tested on: Ipomoea hederacea (IPOHE); experiment: Post-emergence herbicidal glasshouse test on Ipomoea hederacea; conditions: post-emergence; 1000 g/h; evaluated after 13 days
Summary of the method: as §1

[12] = tested on: Alopecurus myosuroides (ALOMY); experiment: Pre-emergence herbicidal glasshouse test on Alopecurus myosuroides; conditions: pre-emergence; 1000 g/h; evaluated after 13 days
Summary of the method: as §1

Structure (SMILES)	PRE Application ECHCG herbicidal damage (five point scale) [1]	POST Application AMARE herbicidal damage (five point scale) [2]	PRE Application SOLNI herbicidal damage (five point scale) (Solanum nigrum (SOLNI) [3])	PRE Application AMARE herbicidal damage (five point scale) [4]	POST Application SOLNI herbicidal damage (five point scale) (Solanum nigrum (SOLNI) [5])	PRE Application IPOHE herbicidal damage (five point scale) [6]	POST Application ALOMY herbicidal damage (five point scale) [7]	PRE Application SETFA herbicidal damage (five point scale) (Setaria faberi (SETFA) [8])	POST Application SETFA herbicidal damage (five point scale) (Setaria faberi (SETFA) [9])	POST Application ECHCG herbicidal damage (five point scale) [10]	POST Application IPOHE herbicidal damage (five point scale) [11]	PRE Application ALOMY herbicidal damage (five point scale) [12]
COC(=O)Oc1c(-c2ccc(C(F)(F)F)cc2S(C)(=O)=O)cnn(C)c1=O [Compound 3.003, Methyl [2-methyl-5-[2-methylsulfonyl-4-(trifluoromethyl)phenyl]-3-oxo-pyridazin-4-yl]carbonate]	5 (5=80-100% damage)	5 (5=80-100% damage)	5 (5=80-100% damage)	5 (5=80-100% damage)	5 (5=80-100% damage)	5 (5=80-100% damage)	5 (5=80-100% damage)	5 (5=80-100% damage)	5 (5=80-100% damage)	5 (5=80-100% damage)	5 (5=80-100% damage)	5 (5=80-100% damage)
CCSC(=O)Oc1c(-c2ccc(C(F)(F)F)cc2S(C)(=O)=O)cnn(C)c1=O [Compound 3.004, [2-methyl-5-[2-methylsulfonyl-4-(trifluoromethyl)phenyl]-3-oxo-pyridazin-4-yl]ethylsulfanylformate]	5 (5=80-100% damage)	5 (5=80-100% damage)	5 (5=80-100% damage)	5 (5=80-100% damage)	5 (5=80-100% damage)	5 (5=80-100% damage)	5 (5=80-100% damage)	5 (5=80-100% damage)	5 (5=80-100% damage)	5 (5=80-100% damage)	5 (5=80-100% damage)	5 (5=80-100% damage)
CCCS(=O)(=O)Oc1c(-c2ccc(C(F)(F)F)cc2S(C)(=O)=O)cnn(C)c1=O [Compound 3.005, [2-methyl-5-[2-methylsulfonyl-4-(trifluoromethyl)phenyl]-3-oxo-pyridazin-4-yl]propane-1-sulfonate]	5 (5=80-100% damage)	5 (5=80-100% damage)	5 (5=80-100% damage)	5 (5=80-100% damage)	5 (5=80-100% damage)	4 (4=60-79% damage)	5 (5=80-100% damage)	5 (5=80-100% damage)	5 (5=80-100% damage)	5 (5=80-100% damage)	5 (5=80-100% damage)	5 (5=80-100% damage)
Cc1ccc(S(=O)(=O)Oc2c(-c3ccc(C(F)(F)F)cc3S(C)(=O)=O)cnn(C)c2=O)cc1 [Compound 3.006, [2-methyl-5-[2-methylsulfonyl-4-(trifluoromethyl)phenyl]-3-oxo-pyridazin-4-yl]4-methylbenzenesulfonate]	5 (5=80-100% damage)	5 (5=80-100% damage)	5 (5=80-100% damage)	5 (5=80-100% damage)	5 (5=80-100% damage)	4 (4=60-79% damage)	5 (5=80-100% damage)	5 (5=80-100% damage)	5 (5=80-100% damage)	5 (5=80-100% damage)	5 (5=80-100% damage)	5 (5=80-100% damage)
CCn1ncc(-c2ccc(C(F)(F)F)nc2S(C)(=O)=O)c(O)c1=O [Compound 4.001]	5 (5=80-100% damage)	5 (5=80-100% damage)	5 (5=80-100% damage)	5 (5=80-100% damage)	5 (5=80-100% damage)	5 (5=80-100% damage)	5 (5=80-100% damage)	5 (5=80-100% damage)	5 (5=80-100% damage)	5 (5=80-100% damage)	5 (5=80-100% damage)	5 (5=80-100% damage)
Cn1ncc(-c2ccc(C(F)(F)F)nc2S(C)(=O)=O)c(O)c1=O [Compound 4.003]	5 (5=80-100% damage)	5 (5=80-100% damage)	5 (5=80-100% damage)	5 (5=80-100% damage)	5 (5=80-100% damage)	5 (5=80-100% damage)	5 (5=80-100% damage)	5 (5=80-100% damage)	5 (5=80-100% damage)	5 (5=80-100% damage)	5 (5=80-100% damage)	5 (5=80-100% damage)
COc1nc(C(F)(F)F)ccc1-c1cnn(C)c(=O)c1O [Compound 4.005]	1 (1=0-19% damage)	5 (5=80-100% damage)	1 (1=0-19% damage)	5 (5=80-100% damage)	3 (3=40-59% damage)	1 (1=0-19% damage)	1 (1=0-19% damage)	1 (1=0-19% damage)	1 (1=0-19% damage)	1 (1=0-19% damage)	2 (2=20-39% damage)	1 (1=0-19% damage)
Cn1ncc(-c2ccc(C(F)(F)F)nc2O)c(O)c1=O [Compound 4.006]	1 (1=0-19% damage)	3 (3=40-59% damage)	1 (1=0-19% damage)	1 (1=0-19% damage)	4 (4=60-79% damage)	1 (1=0-19% damage)	1 (1=0-19% damage)	1 (1=0-19% damage)	1 (1=0-19% damage)	1 (1=0-19% damage)	2 (2=20-39% damage)	1 (1=0-19% damage)
Cn1ncc(-c2ccc(C(F)(F)F)nc2Oc2ccccc2)c(O)c1=O [Compound 4.008]	1 (1=0-19% damage)	5 (5=80-100% damage)	1 (1=0-19% damage)	5 (5=80-100% damage)	5 (5=80-100% damage)	1 (1=0-19% damage)	1 (1=0-19% damage)	1 (1=0-19% damage)	2 (2=20-39% damage)	2 (2=20-39% damage)	4 (4=60-79% damage)	1 (1=0-19% damage)
Cn1ncc(-c2ccc(C(F)(F)F)nc2OCc2cccc(Cl)c2)c(O)c1=O [Compound 4.009]	1 (1=0-19% damage)	4 (4=60-79% damage)	1 (1=0-19% damage)	3 (3=40-59% damage)	5 (5=80-100% damage)	1 (1=0-19% damage)	1 (1=0-19% damage)	1 (1=0-19% damage)	1 (1=0-19% damage)	1 (1=0-19% damage)	1 (1=0-19% damage)	1 (1=0-19% damage)
